Tested on: C57BL/6 mice
Assay: Serum hGH in adenoviral infected mice after RU486 (radio-immunoassay)
Assay type: in vivo, mouse
Description: RU486 (250 μg/kg) was administered every second day after infection for a period of two weeks as indicated by arrows. Mice were bled at different time points and serum hGH was analyzed by radio-immunoassay. Mice 1 and 2 received intraperitoneal injections (IP) of RU486; Mouse 3 (−RU486) received sesame oil. hGH serum levels are shown as μg/ml.
Mice infected for two weeks with the regulatable adenoviral construct hGHGLp65 were induced with […] RU486 as indicated by an arrow. 3, 6, 12, 24, 48, 72, 120 and 192 hours after RU486 administration blood was drawn from the mice, and hGH was measured in the serum by a radio-immunoassay. hGH serum levels of individual mice are shown in μg/ml.
Mice infected with hGH-GLp65 or hGH-H-GLp65 adenoviral vectors were induced 3 times with 250 μg/kg RU486 over a time period of 50 Days. hGH was measured prior to, 12 hours after, and 7 days after RU486 administration. […] Serum levels of hGH are shown in μg/ml.
hGH analysis in adenoviral infected mice. […] Serum hGH levels were detected using a radio-immunoassay. […]
To investigate the kinetics of the regulatory system, mice received a single RU486 administration two weeks after the initial infection and serum hGH levels were measured at different time intervals. […]

With CC#C[C@]1(O)CC[C@H]2[C@@H]3CCC4=CC(=O)CCC4=C3[C@@H](c3ccc(N(C)C)cc3)C[C@@]21C [RU486, mifepristone] the “doses of RU486 needed for induction” value (induction of transgene in the regulatory system) was 0.1 to 0.5 mg/kg and the “hGH induction with oral versus I.P. RU486” value (oral RU486 administration compared with intraperitoneal) was “comparable”.

— patent US20050196751A1, “Adenoviral vector-mediated delivery of modified steroid hormone receptors and related products and methods” (priority 1998, published 2005)
